Measurements published in ChEMBL document CHEMBL1148845, “Chiral tetrahydroquinoline derivatives as potent anti-hyperalgesic agents in animal models of sustained inflammation and chronic neuropathic pain” (Bioorg Med Chem Lett, 2007).
Active and inactive are the calls of the source. The calls are words filed in the database; no cut-off is given here.

Legend:
Glutamate NMDA receptor = experiment: Displacement of [3H]glycine from NMDA receptor in rat cerebral cortex membrane; assay type: cell membranes
[1] = Oral bioavailability in dog at 3 mg/kg, po; assay type: ADME, organism-based, Canis lupus familiaris; conditions: in vivo
[2] = Oral bioavailability in rat at 3 mg/kg, po; assay type: ADME, organism-based; conditions: in vivo
[3] = Plasma clearance in dog at 1 mg/kg, iv or 3 mg/kg, po; assay type: ADME, organism-based, Canis lupus familiaris
[4] = Plasma clearance in rat at 1 mg/kg, iv or 3 mg/kg, po; assay type: ADME, organism-based
[5] = Half life in dog at 1 mg/kg, iv or 3 mg/kg, po; assay type: ADME, organism-based, Canis lupus familiaris; conditions: in vivo
[6] = Half life in rat at 1 mg/kg, iv or 3 mg/kg, po; assay type: ADME, organism-based; conditions: in vivo
Mus musculus [7] = experiment: Antinociceptive effect in po dosed mouse assessed as reduction of licking time in late phase by formalin test; assay type: functional
Rattus norvegicus [8] = experiment: Analgesic effect in po dosed CCI rat model assessed as reduction of thermal hyperalgesia after 1 hr; assay type: functional
Rattus norvegicus [9] = organism: Rattus norvegicus; experiment: Inhibition of windup in rat spinal cord at 10 uM; assay type: functional, organism-based
Mus musculus [10] = experiment: Antinociceptive effect in ip dosed mouse assessed as reduction of licking time in late phase administered before 30 mins of formalin administration; conditions: 0.5 h
Mus musculus [11] = experiment: Antinociceptive effect in ip dosed mouse assessed as reduction of licking time in early phase administered before 30 mins of formalin administration; conditions: 0.5 h
[12] = Oral bioavailability in rat; assay type: ADME, organism-based; conditions: in vivo
Mus musculus [13] = experiment: Antinociceptive effect in mouse assessed as reduction of licking time in late phase administered at 0.1 mg/kg, ip before 10 mins of formalin administration; assay type: functional; set-up: scale not given: the % may be the effect or the level left; conditions: route intraperitoneal

O=C(/C=C1\CC(C(=O)[O-])Nc2cc(Cl)ccc21)Nc1ccccc1.[Na+] (stereo unspecified)
Log Ki (Glutamate NMDA receptor): -7.42
bioavailability [1]: 64%
bioavailability [2]: 85%
clearance [3]: 1.4 mL/min/kg
clearance [4]: 3.5 mL/min/kg
half-life [5]: 2.4 h
half-life [6]: 1.4 h

O=C([O-])c1[nH]c2cc(Cl)cc(Cl)c2c1/C=C1\CCN(c2ccccc2)C1=O.[Na+]
Log Ki (Glutamate NMDA receptor): -7.56
ED50 (Mus musculus [7]): 0.6 mg/kg
ED50 (Rattus norvegicus [8]): 2.95 mg/kg

O=C([O-])[C@H]1C/C(=C2/CCN(c3ccccc3)C2=O)c2ccc(Cl)cc2N1.[Na+]
ED50 (Mus musculus [7]): 0.14 mg/kg
ED50 (Rattus norvegicus [8]): 0.14 mg/kg
Activity (Rattus norvegicus [9]): Active

O=C([O-])C1C/C(=C2/CCCN(c3ccccc3)C2=O)c2ccc(Cl)cc2N1.[Na+] (stereo unspecified)
Log Ki (Glutamate NMDA receptor): -5.71

O=C([O-])C1C/C(=C2/NC(=O)N(c3ccccc3)C2=O)c2ccc(Cl)cc2N1.[Na+] (stereo unspecified)
Log Ki (Glutamate NMDA receptor): -7.8

CN1CC[C@]23c4c5ccc(O)c4O[C@H]2[C@@H](O)C=C[C@H]3[C@H]1C5 [MORPHINE]
ED50 (Mus musculus [10]): 0.56 mg/kg
ED50 (Mus musculus [11]): 0.73 mg/kg

O=C([O-])C1C/C(=C2/CCN(c3ccccc3)C2=O)c2ccc(Cl)cc2N1.[Na+] (stereo unspecified)
bioavailability [12]: 76%

C[C@]12N[C@H](Cc3ccccc31)c1ccccc12 [DIZOCILPINE]
ED50 (Mus musculus [7]): 0.1 mg/kg
Activity (Mus musculus [13]): 50%

O=C([O-])C1C/C(=C2/CC(=O)N(c3ccccc3)C2=O)c2ccc(Cl)cc2N1.[Na+] (stereo unspecified)
Log Ki (Glutamate NMDA receptor): -5.64
